# Reference: US10829458B2 (Araxes Pharma LLC, priority 2015, dated 2020)
# Biological target: T1, KRAS G12C 1-169, his-tagged protein, GDP-loaded (Homo sapiens, UniProt P01116, G12C)
# T1 construct: KRAS G12C 1-169, his-tagged protein, GDP-loaded
# Test: Biochemical assay: covalent modification of KRAS G12C measured by mass spectrometry (RapidFire/TOF or Q-Exactive)
# Settings: covalent binding to KRAS G12C; compounds of structure (I)
# Outline: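 GDP-loaded his-tagged KRAS G12C 1-169 at 2 μM in 20 mM Hepes, 150 mM NaCl, 1 mM MgCl2 incubated at room temperature with compound (10, 30 or 100 μM final, 2% DMSO) for 30 min, 2 h or 24 h, then quenched with formic acid. Intact-protein LC-MS (RapidFire/TOF or Q-Exactive) with deconvolution quantified modified versus unmodified protein.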
row,SMILES,Binding %
1,"C=CC(=O)N1CCN(c2nc(CCN(C)C)nc3c(F)c(-c4c(C)ccc5[nH]ncc45)c(Cl)cc23)CC1 [Example I-34, 1-(4-(6-chloro-2-(2-(dimethyl-amino)ethyl)-8-fluoro-7-(5-methyl-1H-indazol-4-yl)quinazolin-4-yl)piperazin-1-yl)prop-2-en-1-one]",+++ (+++ indicates binding activity greater than 90%)
2,"C=CC(=O)N1CCN(c2nc(OCC3CCN(CC(F)(F)F)CC3)nc3c(F)c(-c4c(O)cccc4F)c(Cl)cc23)CC1 [Example I-35, 1-(4-(6-chloro-8-fluoro-7-(2-fluoro-6-hydroxyphenyl)-2-((1-(2,2,2-trifluoroethyl)piperidin-4-yl)methoxy)quinazolin-4-yl)piperazin-1-yl)prop-2-en-1-one]",++ (++ indicates binding activity from 50 to 90%)
3,"C=CC(=O)N1CCN(c2nc(OCCN3CC(F)(F)C3)nc3c(F)c(-c4c(O)cccc4F)c(Cl)cc23)CC1 [Example I-36, 1-(4-(6-chloro-2-(2-(3,3-difluoroazetidin-1-yl)ethoxy)-8-fluoro-7-(2-fluoro-6-hydroxyphenyl)quinazolin-4-yl)piperazin-1-yl) prop-2-en-1-one]",+++ (+++ indicates binding activity greater than 90%)
4,"C=CC(=O)N1CCN(c2nc(OCCN3CCOCC3)nc3c(F)c(-c4ccccc4C(C)C)c(Cl)cc23)CC1 [Example I-37, 1-(4-(6-chloro-8-fluoro-7-(2-isopropylphenyl)-2-(2-morpholino-ethoxy)quinazolin-4-yl)piperazin-1-yl)prop-2-en-1-one]",+++ (+++ indicates binding activity greater than 90%)
5,"C=CC(=O)N1CCN(c2nc(OCCN3CCC(F)(F)CC3)nc3c(F)c(-c4c(O)cccc4F)c(Cl)cc23)CC1 [Example I-38, 1-(4-(6-chloro-2-(2-(4,4-difluoro-piperidin-1-yl)ethoxy)-8-fluoro-7-(2-fluoro-6-hydroxyphenyl)quinazolin-4-yl)piperazin-1-yl) prop-2-en-1-one]",+++ (+++ indicates binding activity greater than 90%)
6,"C=CC(=O)N1CCN(c2nc(OCCN3CCOCC3)nc3c(F)c(-c4c(F)cccc4OC)c(Cl)cc23)CC1 [Example I-39, 1-(4-(6-chloro-8-fluoro-7-(2-fluoro-6-methoxyphenyl)-2-(2-morpholino-ethoxy)quinazolin-4-yl)piperazin-1-yl)prop-2-en-1-one]",+++ (+++ indicates binding activity greater than 90%)
7,"C=CC(=O)N1CCN(c2nc(OCCN(CC)CC)nc3c(F)c(-c4c(O)cccc4F)c(Cl)cc23)CC1 [Example I-40, 1-(4-(6-chloro-2-(2-(diethyl-amino)ethoxy)-8-fluoro-7-(2-fluoro-6-hydroxyphenyl)quinazolin-4-yl)piperazin-1-yl) prop-2-en-1-one]",+++ (+++ indicates binding activity greater than 90%)
8,"C=CC(=O)N1CCN(c2nc(N3CC(N4CCN(C)CC4)C3)nc3c(F)c(-c4c(O)cccc4F)c(Cl)cc23)CC1 [Example I-41, 1-(4-(6-chloro-8-fluoro-7-(2-fluoro-6-hydroxyphenyl)-2-(3-(4-methyl-piperazin-1-yl)azetidin-1-yl)quinazolin-4-yl)piperazin-1-yl)prop-2-en-1-one]",+++ (+++ indicates binding activity greater than 90%)
9,"C=CC(=O)N1CCN(c2nc(OCCN3CCN(C(C)C)CC3)nc3c(F)c(-c4c(O)cccc4F)c(Cl)cc23)CC1 [Example I-42, 1-(4-(6-chloro-8-fluoro-7-(2-fluoro-6-hydroxyphenyl)-2-(2-(4-isopropyl-piperazin-1-yl)ethoxy)quinazolin-4-yl)piperazin-1-yl)prop-2-en-1-one]",+++ (+++ indicates binding activity greater than 90%)
10,"C=CC(=O)N1CCN(c2nc(OCCN3CCC3)nc3c(F)c(-c4c(O)cccc4F)c(Cl)cc23)CC1 [Example I-43, 1-(4-(2-(2-(azetidin-1-yl)ethoxy)-6-chloro-8-fluoro-7-(2-fluoro-6-hydroxyphenyl)quinazolin-4-yl)piperazin-1-yl) prop-2-en-1-one]",+++ (+++ indicates binding activity greater than 90%)
11,"C=CC(=O)N1CCN(c2nc(OCCc3ccccn3)nc3c(F)c(-c4cc(O)cc5ccccc45)c(Cl)cc23)CC1 [Example I-44, 1-(4-(6-chloro-8-fluoro-7-(3-hydroxy-naphthalen-1-yl)-2-(2-(pyridin-2-yl)ethoxy)quinazolin-4-yl)piperazin-1-yl) prop-2-en-1-one]",+++ (+++ indicates binding activity greater than 90%)
12,"C=CC(=O)N1CCN(c2nc(OCCc3ccccn3)nc3c(F)c(-c4c(O)cccc4F)c(Cl)cc23)CC1 [Example I-45, 1-(4-(6-chloro-8-fluoro-7-(2-fluoro-6-hydroxyphenyl)-2-(2-(pyridin-2-yl)ethoxy)quinazolin-4-yl)piperazin-1-yl)prop-2-en-1-one]",+++ (+++ indicates binding activity greater than 90%)
13,"C=CC(=O)N1CCN(c2nc(N3CCOCC3)nc3c(F)c(-c4cc(O)cc5ccccc45)c(Cl)cc23)CC1 [Example I-46, 1-(4-(6-chloro-8-fluoro-7-(3-hydroxy-naphthalen-1-yl)-2-morpholino-quinazolin-4-yl)piperazin-1-yl)prop-2-en-1-one]",+++ (+++ indicates binding activity greater than 90%)
14,"C=CC(=O)N1CCN(c2nc(N3CCOCC3)nc3c(F)c(-c4c(O)cccc4F)c(Cl)cc23)CC1 [Example I-47, 1-(4-(6-chloro-8-fluoro-7-(2-fluoro-6-hydroxyphenyl)-2-morpholino-quinazolin-4-yl)piperazin-1-yl)prop-2-en-1-one]",+++ (+++ indicates binding activity greater than 90%)
15,"C=CC(=O)N1CCN(c2nc(OCCN3CCOCC3)nc3c(F)c(-c4ccccc4C(F)(F)F)c(Cl)cc23)CC1 [Example I-48, 1-(4-(6-chloro-8-fluoro-2-(2-morpholino-ethoxy)-7-(2-(trifluoromethyl)phenyl)quinazolin-4-yl)piperazin-1-yl)prop-2-en-1-one]",+++ (+++ indicates binding activity greater than 90%)
16,"C=CC(=O)N1CCN(c2nc(C(=O)N3CCOCC3)nc3c(F)c(-c4c(O)cccc4F)c(Cl)cc23)CC1 [Example I-49, 1-(4-(6-chloro-8-fluoro-7-(2-fluoro-6-hydroxyphenyl)-2-(morpholine-4-carbonyl)quinazolin-4-yl)piperazin-1-yl) prop-2-en-1-one]",+++ (+++ indicates binding activity greater than 90%)
17,"C=C(F)C(=O)N1CCN(c2nc(OCCN3CCOCC3)nc3c(F)c(-c4cc(O)cc5ccccc45)c(Cl)cc23)CC1 [Example I-50, 1-(4-(6-chloro-8-fluoro-7-(3-hydroxy-naphthalen-1-yl)-2-(2-morpholino-ethoxy)quinazolin-4-yl)piperazin-1-yl)-2-fluoroprop-2-en-1-one]",++ (++ indicates binding activity from 50 to 90%)
18,"C=CC(=O)N1CCN(c2nc(OCC(O)CN(C)C)nc3c(F)c(-c4c(C)ccc5[nH]ncc45)c(Cl)cc23)CC1 (stereo not drawn) [Example I-53, 1-(4-(6-chloro-2-(3-(dimethyl-amino)-2-hydroxy-propoxy)-8-fluoro-7-(5-methyl-1H-indazol-4-yl)quinazolin-4-yl)piperazin-1-yl)prop-2-en-1-one]",+++ (+++ indicates binding activity greater than 90%)
19,"C=CC(=O)N1CCN(c2nc(OCCc3ccccn3)nc3c(F)c(-c4cc(OC)cc5ccccc45)c(Cl)cc23)CC1 [Example I-54, 1-(4-(6-chloro-8-fluoro-7-(3-methoxy-naphthalen-1-yl)-2-(2-(pyridin-2-yl)ethoxy)quinazolin-4-yl)piperazin-1-yl)prop-2-en-1-one]",+ (+ indicates binding activity up to 50%)
20,"C=CC(=O)N1CCN(c2nc(N3CC(N(C)C)C3)nc3c(F)c(-c4c(O)cccc4F)c(Cl)cc23)CC1 [Example I-55, 1-(4-(6-chloro-2-(3-(dimethyl-amino)azetidin-1-yl)-8-fluoro-7-(2-fluoro-6-hydroxyphenyl)quinazolin-4-yl)piperazin-1-yl) prop-2-en-1-one]",+++ (+++ indicates binding activity greater than 90%)
21,"C=CC(=O)N1CCN(c2nc(NCCN3CC[C@@H](O)C3)nc3c(F)c(-c4c(O)cccc4F)c(Cl)cc23)CC1 [Example I-56, 1-(4-(6-chloro-8-fluoro-7-(2-fluoro-6-hydroxyphenyl)-2-(2-((R)-3-hydroxy-pyrrolidin-1-yl)ethylamino)quinazolin-4-yl)piperazin-1-yl) prop-2-en-1-one]",+++ (+++ indicates binding activity greater than 90%)
22,"C=CC(=O)N1CCN(c2nc(OCCN3CCOCC3=O)nc3c(F)c(-c4cc(O)cc5ccccc45)c(Cl)cc23)CC1 [Example I-57, 4-(2-(4-(4-acryloyl-piperazin-1-yl)-6-chloro-8-fluoro-7-(3-hydroxy-naphthalen-1-yl)quinazolin-2-yloxy)ethyl) morpholin-3-one]",+++ (+++ indicates binding activity greater than 90%)
23,"C=CC(=O)N1CCN(c2nc(OCC(O)CN(C)C)nc3c(F)c(-c4cc(O)cc5ccccc45)c(Cl)cc23)CC1 (stereo not drawn) [Example I-58, 1-(4-(6-chloro-2-(3-(dimethyl-amino)-2-hydroxy-propoxy)-8-fluoro-7-(3-hydroxy-naphthalen-1-yl)quinazolin-4-yl)piperazin-1-yl)prop-2-en-1-one]",+++ (+++ indicates binding activity greater than 90%)
24,"C=CC(=O)N1CCN(c2nc(OC3CCN(C)CC3)nc3c(F)c(-c4c(C)ccc5[nH]ncc45)c(Cl)cc23)CC1 [Example I-59, 1-(4-(6-chloro-8-fluoro-7-(5-methyl-1H-indazol-4-yl)-2-(1-methyl-piperidin-4-yloxy)quinazolin-4-yl)piperazin-1-yl)prop-2-en-1-one]",+++ (+++ indicates binding activity greater than 90%)
